In patent publication US12702671B2, “Calcineurin inhibitors of the setron family for the treatment of hearing loss” (SENSORION, priority 2015, dated 2026):
“Also recorded” adds a separate entry of the source. Where a name gives a salt, the structure may show the parent alone.

What was measured:
[1] = system: acoustic trauma induced hearing loss; experiment: Distortion product otoacoustic emissions (DPOAE) amplitudes after acoustic trauma; assay type: in vivo, Wistar rats; conditions: for DPOAE amplitude loss from baseline to day 14 compared to placebo / recovery of DPOAE amplitudes from 24 h post trauma to day 14 compared to placebo: i.p. daily for 14 days after acoustic trauma, same doses as E4
Protocol: (§1) All experiments were performed using 7 week old male Wistar rats (CERJ, Le Genest, France) in accordance with the French Ministry of Agriculture regulations and European Community Council Directive no. 86/609/EEC, OJL 358. The rats were fed a standard diet ad libitum and maintained on a 12 h light-dark cycle.
(§2) Auditory Brainstem Reponses (ABR) and Distortion Product Otoacoustic Emissions (DPOAE) were recording using a RZ6 Auditory Workstation (Tucker-Davis Technologies, Alachua, FL, USA) with animals deeply anesthetized using 90 mg/kg ketamine and 10 mg/kg xylazine and placed on a 35° C. recirculating heating pad inside a sound attenuating cubicle (Med Associates Inc., St. Albans, VT, USA) throughout the experiment.
DPOAEs were recorded and using ER10B+ Low Noise DPOAE microphone (Etymotic Research, Inc., Elk Grove Village, IL, USA) with acoustic stimuli delivered by two calibrated MF-1 speakers in closed-field configuration (Tucker-Davis Technologies, Alachua, FL, USA). DPOAEs were recorded at fixed stimulus levels (L1=L2=70 dB SPL), with an f2/f1 ratio of 1.2. Responses were recorded at 4, 8, 16, 24 and 32 kHz.
(§3) Animals were exposed to 121 dB octave band noise (8-16 kHz) for 2 h in groups of 4 rats, placed in individual compartments of a custom built circular cage placed on a 30 cm diameter platform rotating at 3 turns/minute (Aqila Innovation, Valbonne, France). The calibrated octave band noise generated by the RZ6 SigGen software was further amplified by a Crown D-75 amplifier in bridge mode (Crown Audio, Elkhart, IN, USA) and delivered by four Beyma CP16 compression tweeters (Acustica Beyma S. L., Moncada, Valencia, Spain) positioned 39 cm above the rotating platform, each 10 cm from the platform center.
(§4) Animals were treated by intraperitoneal injection daily for 14 days beginning immediately after acoustic trauma induction and subsequently repeated every 24 hours. The setron compounds granisetron HCl, ondansetron HCl, tropisetron HCl and azasetron HCl (Tocris Bioscience, Bristol, UK) were delivered dissolved in saline solution (1.6 mL/kg) while Tacrolimus (Selleck Chemicals, Houston, TX, USA) was dissolved in solution composed of 10% ethanol-100%/10% Kolliphor EL/1% Tween 80/79% saline (1.0 mL/kg). Placebo treated animals received injections of 1.6 mL/kg saline following the same treatment schedule.
(§5) Statistical analysis was performed using two-way ANOVA (Audiometry data: frequency and treatment group. Cochleograms: normalized distance from apex and treatment group) followed by Holm-Sidak post-hoc test for multiple comparisons. Results are given as mean±SEM and a p value less than or equal to 0.05 considered significant.
(§6) Baseline line audiometry (ABR and DPOAE measures) was performed for each animal 3 days before acoustic trauma was induced. Subsequently, audiometry measures were repeated 24 h and 14 days after acoustic trauma.
(§7) To quantify and compare the difference in treatment effects between groups while taking into account individual baseline and trauma variability, the hearing loss (ABR threshold shift & DPOAE amplitude loss) at D14 relative to baseline, as well as the functional recovery of hearing from 24 h to D14 (ABR threshold shift & DPOAE amplitude loss) were determined for all treatment groups.

[2] = system: acoustic trauma induced hearing loss; experiment: Auditory brainstem response (ABR) thresholds after acoustic trauma; assay type: in vivo, Wistar rats; conditions: for ABR threshold recovery from 24 h to day 14 compared to placebo / hearing outcomes (ABR thresholds and DPOAE amplitudes) at 14 days after acoustic trauma compared to placebo: i.p. daily for 14 days after acoustic trauma, same doses as E4; for ABR threshold shift from baseline to day 14 compared to placebo: i.p. daily for 14 days from immediately after 121 dB trauma, azasetron HCl 4.22, ondansetron HCl 4, tropisetron HCl 3.5, granisetron HCl 3.8, Tacrolimus 1.5 mg/kg
Protocol: as §1, §2
For ABR recordings, three stainless steel needle electrodes were placed subdermally over the vertex, the right mastoid and right hind leg of each animal. Tone-pips (5 msec duration presented at a rate of 21/s) at 8, 16 and 24 kHz were delivered to the right ear using a calibrated MF-1 speaker in closed-field configuration (Tucker-Davis Technologies, Alachua, FL, USA) at attenuating intensity until no reproducible response could be recorded. Close to the ABR threshold, the responses to 1000 acoustic stimuli in 5 dB steps were averaged. Responses were low-pass filtered at 3 kHz.
as §3, §4, §5, §6, §7

calcineurin = experiment: Calcineurin phosphatase activity in cerebellar granule neurons after 4 DIV (malachite green colorimetric assay, Test A); assay type: cell-based, Wistar rat; conditions: for effect on calcineurin phosphatase activity: CGNs in K25 medium, 10, 100 or 1000 nM for 4 DIV, relative to K25 control (100%); for change of calcineurin inhibition with increasing concentration: CGNs, 4 DIV, 10-1000 nM
Protocol: According to Test A, phosphatase calcineurin activity is assessed in cerebellar granule neurons (CGNs) using a colorimetric assay kit based on quantification of the green complex formed between malachite green, molybdate and free phosphate released. CGNs are detached from plates, for example by scraping, rinsed in ice-cold tris buffer solution (TBS) and counted. About 10 million cells are lysed in 1 ml of the provided lysis buffer and centrifuged at 150,000×g at 4° C. for 45 min, and the supernatant may be stored at −70° C. until analysis. Prior to calcineurin activity assay, free phosphate and nucleotides are removed from cellular extract by gel filtration. To ensure the complete removal of phosphate, malachite green reagent may be added, which will turn the color green in presence of phosphate. A specific calcineurin substrate is added to phosphate-free cellular extracts and after appropriate incubation period, malachite green reagent is applied. The rapid green color formation from the reaction is measured, for example on a spectrophotometer. The developed color is proportional to the calcineurin phosphatase activity of samples. Absorbance values, read at 620 nm, may thus be transformed to percentage calcineurin activity relative to K25 control treatment (100%). Cerebellar granule cells were dissociated from the cerebellae of 7-day-old Wistar rat pups as described (Kramer et al. 2003, Mol Cell Neurosci 23:325-330). Briefly, the cerebellae were removed, rinsed in HBSS-BSA, minced, digested with 0.025% trypsin and incubated at 37° C. for 15 min. To stop the digestion, DMEM containing 10% fetal calf serum was added; then a single cell suspension was obtained through pipetting up and down the sedimented tissue. Following centrifugation, cells were counted using trypan blue exclusion test in a Burker chamber. This method is based on the ability of viable cells to exclude trypan blue due to their intact cell membranes, leaving them unstained while nonviable cells take up the dye. Cells at 3.2×10^5/cm^2 were seeded in DMEM Hepes modification supplemented with 10% fetal calf serum, 100 μg/ml pyruvate, and 100 μg/ml gentamicin on Polystyrene 12-well tissue culture plates (CELLSTAR) coated with poly-L-lysine. After 24 h, 10 μM cytosine arabinofuranoside was added to inhibit the growth of non-neuronal cells. All pharmacological interventions begun at this time in the culture medium containing 25 mM KCl (K25), which caused depolarization of granule cells and consequently activated gene expression machinery. Moreover, the viability of granule neurons was higher in this milieu and therefore provides the possibility to maintain cells for several days. Indeed, 25 mM KCl is required in the medium for CGN cultures to maintain adequate calcineurin activity and cell maturation and depolarization (Kramer et al., 2003, Mol Cell Neurosci 23:325-330; Vallano et al. 2006, Neuropharmacology 50: 651-660). Cultures received simple medium (K25 control) or medium containing a setron compound in HCl salt form (Tocris Bioscience, Bristol, UK) at concentrations of 10 nM, 100 nM or 1000 nM for 4 days in vitro (DIV). Phosphatase calcineurin activity was assessed in CGNs using a colorimetric assay kit based on quantification of the green complex formed between malachite green, molybdate and free phosphate released. CGNs were detached from plates by scraping, rinsed in ice-cold tris buffer solution (TBS) and counted. About 10 million cells are lysed in 1 ml of the provided lysis buffer and centrifuged at 150,000×g at 4° C. for 45 min, and the supernatant was stored at −70° C. until analysis. Prior to calcineurin activity assay, free phosphate and nucleotides were removed from cellular extract by gel filtration. To ensure the complete removal of phosphate, malachite green reagent was added, which will turn the color green in presence of phosphate. […]

outer hair cells = experiment: Outer hair cell loss (cytocochleograms) in cochleae fixed at D14 after acoustic trauma; assay type: in vivo, Wistar rats; conditions: cochleae fixed after audiometry on day 14
Protocol: as §3, §4
After audiometry on day 14, animals were deeply anaesthetized with an intraperitoneal injection of pentobarbital (100 mg/kg). The cochleae were removed, fixed with 4% paraformaldehyde, pH 7.4, decalcified with 10% EDTA, pH 7.4 and then stained with myosin VIIa 1/1000. […] The mean loss of OHCs per group was subsequently calculated as a function of normalized distance from the apex in bins of 2.5% of the total length, using the total length of each histological specimen. Cell counts could reliably be obtained for up to 90% of the total distance from the apex (corresponding to the tonotopic region up to from 0 kHz to ~50 kHz in rat, Viberg & Canlon 2004), while the last 10% was too variable due to damage incurred during dissection.
as §5
To further support the conclusions from the functional audiometry data, the loss of outer hair cells in four treatment group was determined by constructing cytocochleograms from histological preparations of cochleae fixed after audiometry on day 14.

[3] = system: noise-induced hearing loss; conditions: Uemaetomari et al. 2005; Bas et al. 2009; cited from earlier work
[4] = Animal deaths during 14-day repeated treatment in the acoustic trauma study; assay type: in vivo, Wistar rats; conditions: Tacrolimus 1.5 mg/kg i.p. daily for 14 days
Protocol: as §1, §4, §6
FIGS. 2 & 3 illustrate the audiometry measures (ABR thresholds and DPOAE amplitudes) determined for all treatment groups at baseline, 24 h and 14 days after acoustic trauma. For ABR thresholds exceeding 90 dB, a maximal value of 95 dB was attributed. […]

[5] = day 14, i.p. daily for 14 days after acoustic trauma

| Compound | DPOAE amplitude loss from baseline to day 14 compared to placebo [1] | recovery of DPOAE amplitudes from 24 h post trauma to day 14 compared to placebo [1] | DPOAE amplitude loss from baseline to day 14 compared to placebo ([1]; listed as granisetron) | ABR threshold recovery from 24 h to day 14 compared to placebo [2] | hearing outcomes (ABR thresholds and DPOAE amplitudes) at 14 days after acoustic trauma compared to placebo [2] | ABR threshold shift from baseline to day 14 compared to placebo [2] | effect on calcineurin phosphatase activity (calcineurin) | mean loss of outer hair cells compared to placebo (outer hair cells) | mean loss of outer hair cells compared to placebo (outer hair cells; listed as granisetron) | reduction of DPOAE amplitudes loss compared to placebo treatment [1, 5] | reduction of ABR threshold shifts compared to placebo treatment [2, 5] | change of calcineurin inhibition with increasing concentration (calcineurin) | effect on hearing loss in pre-clinical models of noise-induced hearing loss [3] | animals that died between treatment initiation and end of the study [4] | DPOAE amplitude loss from baseline to day 14 compared to placebo ([1]; listed as tropisetron) |
| --- | --- | --- | --- | --- | --- | --- | --- | --- | --- | --- | --- | --- | --- | --- | --- |
| CN1C2CCCC1CC(NC(=O)c1nn(C)c3ccccc13)C2 (stereo not drawn) [granisetron HCl] | trend towards increased DPOAE amplitude loss | reduced recovery | trend towards worse DPOAE amplitudes | decreased threshold recovery | worse ABR thresholds and DPOAE amplitudes | strong trends towards higher ABR threshold shifts | no effect | Neither the granisetron HCl nor the tacrolimus treated groups were significantly different from placebo | trend towards worse | – | – | – | – | – | – |
| Cc1nccn1CC1CCc2c(c3ccccc3n2C)C1=O (stereo not drawn) [ondansetron HCl] | trend towards reduced loss of DPOAE amplitude | improved recovery | – | – | improvement at some frequencies | lower ABR threshold shift | significantly inhibited | – | – | 10-30% | 10-30% | decreased with increasing concentration | – | – | – |
| Cn1cc(C(=O)[C@@H]2CCc3nc[nH]c3C2)c2ccccc21 [ramosetron HCl] | – | – | – | – | – | – | significantly inhibited | – | – | – | – | increased to different degree with increasing concentrations | – | – | – |
| C=CC[C@@H]1/C=C(\C)C[C@H](C)C[C@H](OC)[C@H]2O[C@@](O)(C(=O)C(=O)N3CCCC[C@H]3C(=O)O[C@H](/C(C)=C/[C@@H]3CC[C@@H](O)[C@H](OC)C3)[C@H](C)[C@@H](O)CC1=O)[C@H](C)C[C@@H]2OC [tacrolimus] | trend towards reduced loss of DPOAE amplitude; also recorded: trends towards improving DPOAE amplitude loss at some frequencies | improved recovery | – | – | improvement at some frequencies | no major effect | – | Neither the granisetron HCl nor the tacrolimus treated groups were significantly different from placebo | – | – | – | – | reduce hearing loss | 5 animals out of 11 | – |
| CN1[C@@H]2CC[C@H]1C[C@@H](OC(=O)c1c[nH]c3ccccc13)C2 [tropisetron HCl] | trend towards increased DPOAE amplitude loss | reduced recovery | – | decreased threshold recovery | worse ABR thresholds and DPOAE amplitudes | strong trends towards higher ABR threshold shifts | significantly inhibited | trend towards worse | – | – | – | increased to different degree with increasing concentrations | – | – | trend towards worse DPOAE amplitudes |
| cyclosporine A | – | – | – | – | – | – | – | – | – | – | – | – | reduce hearing loss | – | – |
